# Assay results from patent US6716411B2, “Method for finding nucleotide synthesis inhibitors having fewer side effects” (Aventis Pharma Deustschland GmbH, priority 1999, dated 2004).
# Tests used:
# Format in all cases: in vivo
# [1] = system: adjuvant-induced arthritis; assay: Adjuvant-induced arthritis model, dose-response relationship (Example 1); conditions: for Increase in body weight / Reduction in arthritis score / Reduction in paw swelling / Surviving animals: day 21
# Source text: The dose-response relationship of N-(4-trifluoromethylphenyl)-2-cyano-3-hyroxycrotonamide, hereafter referred to as compound 1, was drawn up in the adjuvant-induced arthritis model (method of Pearson C. M. and Wood F. D.; Arth. Rheum. 2: 44 (1959), and Taurog J. D., Argentieri D. C. et al., Meth. Enzymol. 162: 339 (1988)). The swelling of the paws, the formation of generalized symptoms of arthritis, know as the score index, the increase in the body weight during the experiment, and the survival of the animals were determined.
# Compound 1 was administered orally from the start of the experiment onwards up to the end on day 21 in a 1% strength carboxymethlcellulose solution, (CMC). The control groups received corresponding amounts of 1% CMC without the active compound.
# Six male Lewis rats having a body weight of approximately 210 g were employed in each experimental group.
# Negative numbers indicate the worsening of the respective measurement parameter.
# In the adjuvant-induced arthritis model in the rat, autoimmune reactions are observed which correspond to the autoimmune diseases of the rheumatic type in humans.
# pemphigus vulgaris = assay: Observation of leflunomide treatment in humans; conditions: rheumatoid arthritis patients treated with leflunomide
# Description: This diarrhea adversely affected the quality of life of the patient. Because of the problems caused by this side effect, an attempt was made, after more than two years' therapy with a constant dose of 20 mg of leflunomide per day, to end the therapy.
# This observation was surprising, as the active metabolite of leflunomide, compound 1, has a half-life of approximately 14 days in humans. Furthermore, in this patient the blood levels of the active metabolite of leflunomide were repeatedly determined in the relatively high range between 70 mg/l and 85 mg/l.
# [2] = Blood plasma level of compound 1 in the rat with and without colestyramine (HPLC-MS/MS); conditions: for half-life: male, Lewis, rat, plasma
# Description: A selective HPLC-MS/MS method was used for the detection of compound 1. The quantitative determination of compound 1 from the blood plasma was carried out as follows:
# A solution of an internal standard, then 0.1 M NaOH solution and 1 ml of diethyl ether were added. The mixture was vigorously shaken and the organic phase was discarded. 0.5 N HCl solution was added to the aqueous phase, and the analyte and the internal standard were extracted with 1 ml of diethyl ether. The organic phase was evaporated and taken up in a 1:1 mixture of acetonitrile and water. 10 μl of this solution was injected into an HPLC unit.
# The HPLC unit contained a Lichrospher C-18HD column. Using a flow rate of 1 ml/min, the analyte and the internal standard were eluted using the eluent combination acetonitrile+(ammonium acetate solution [10 mmolar]), 67+33, and then selectively detected by mass spectroscopy (LC-MS/MS analysis). During the analysis of the blood plasma samples, calibration samples were taken.
# In order to test foreign substances in identical metabolic situations, compound 1 was given only to animals with adjuvant arthritis. The arthritis was induced according to Example 1. The animal weight was on average 210 g. Each group consisted of 6 male Lewis rats. Blood samples were obtained from the tail.
# The influence on the blood plasma level of compound 1 was investigated by means of colestyramine. […] During combination therapy with colestyramine, 1000 mg/kg of colestyramine was administered 4 hours after administration of the compound 1. Control animals received 1% CMC at the appropriate times without any active compound. The influence on the pharmacokinetics of compound 1 by colestyramine was investigated both after single administration and after chronic administration of compound 1 with or without colestyramine. Blood samples were obtained 2, 4, 6, 8, 24 and 48 hours after the last administration of compound 1.
# The term “area under the curve” (AUC) is understood as meaning the area under the concentration level of a pharmaceutical substance plotted as a function of time. The AUC reflects the extent to which an organism is exposed to a substance. The term “chronic administration” is understood as meaning an administration of the compound 1 over a period of time which at least leads to constant blood levels of the compound 1. These constant blood levels, referred to as the steady state, are achieved after approximately 4 to 5 half-lives of regular taking.
# [3] = chronic administration, 2.5 mg/kg of compound 1
# [4] = chronic administration, 2.5 mg/kg of compound 1 and 1000 mg/kg of colestyramine 4 hours later
# [5] = single administration, 2.5 mg/kg of compound 1
# [6] = single administration, 2.5 mg/kg of compound 1 and 1000 mg/kg of colestyramine 4 hours later
smiles,measurement,setting,value
"C/C(O)=C(\C#N)C(=O)Nc1ccc(C(F)(F)F)cc1 [compound 1, N-(4-trifluoromethylphenyl)-2-cyano-3-hydroxycrotonamide]",therapeutic action,[1]; 1 mg/kg/day,an action could no longer be determined
same,Increase in body weight,[1]; 1 mg/kg/day orally,10%
same,Reduction in arthritis score,[1]; 1 mg/kg/day orally,−11%
same,Reduction in paw swelling,[1]; 1 mg/kg/day orally,−9%
same,Surviving animals,[1]; 1 mg/kg/day orally,100%
same,Increase in body weight,[1]; 2.5 mg/kg/day orally,20%
same,Reduction in arthritis score,[1]; 2.5 mg/kg/day orally,70%
same,Reduction in paw swelling,[1]; 2.5 mg/kg/day orally,78%
same,Surviving animals,[1]; 2.5 mg/kg/day orally,100%
same,Increase in body weight,[1]; 5 mg/kg/day orally,37%
same,Reduction in arthritis score,[1]; 5 mg/kg/day orally,83%
same,Reduction in paw swelling,[1]; 5 mg/kg/day orally,96%
same,Increase in body weight,[1]; 7.5 mg/kg/day orally,25%
same,Reduction in arthritis score,[1]; 7.5 mg/kg/day orally,87%
same,Reduction in paw swelling,[1]; 7.5 mg/kg/day orally,105%
same,Increase in body weight,[1]; 10 mg/kg/day orally,11%
same,Reduction in arthritis score,[1]; 10 mg/kg/day orally,84%
same,Reduction in paw swelling,[1]; 10 mg/kg/day orally,96%
same,Increase in body weight,[1]; 15 mg/kg/day orally,8%
same,Reduction in arthritis score,[1]; 15 mg/kg/day orally,91%
same,Reduction in paw swelling,[1]; 15 mg/kg/day orally,106%
same,Increase in body weight,[1]; 25 mg/kg/day orally,−2%
same,Reduction in arthritis score,[1]; 25 mg/kg/day orally,96%
same,Reduction in paw swelling,[1]; 25 mg/kg/day orally,114%
same,lowest efficacious dose,"[1]; orally once daily, adjuvant-induced arthritis, rat",2.5 mg/kg/day
same,blood levels of the compound 1,pemphigus vulgaris,over 32 mg/l
same,Area under the curve 0-48 hours,[2]; [3],63.58 μg/ml × hr
same,Maximum blood plasma level,[2]; [3],5.73 µg/mL
same,Area under the curve 0-48 hours,[2]; [4],37.81 μg/ml × hr
same,Maximum blood plasma level,[2]; [4],4.66 µg/mL
same,half-life,"[2]; oral, 2.5 mg/kg, chronic administration, 2.5 mg/kg of compound 1",3.45 h
same,half-life,"[2]; oral, 2.5 mg/kg, single administration, 2.5 mg/kg of compound 1, rats with adjuvant arthritis",3.85 h
same,half-life,"[2]; oral, chronic administration, 2.5 mg/kg of compound 1 and 1000 mg/kg of colestyramine 4 hours later",3.47 h
same,half-life,"[2]; oral, single administration, 2.5 mg/kg of compound 1 and 1000 mg/kg of colestyramine 4 hours later",3.32 h
same,half-life,"[2]; po, 2.5 mg/kg/day, in rats, approximately, orally administered",4 to 8 h
same,AUC reduced by administration of colestyramine,[2]; multiple administration,40%
same,AUC reduced by administration of colestyramine,[2]; single administration,30%
same,Area under the curve 0-48 hours,[2]; [5],141.69 μg/ml × hr
same,Maximum blood plasma level,[2]; [5],10.15 µg/mL
same,Area under the curve 0-48 hours,[2]; [6],99.90 μg/ml × hr
same,Maximum blood plasma level,[2]; [6],9.62 µg/mL
